Where a SMILES comes first, the peptide text is derived from it. Bridges are numbered along the chain shown (N, C = ends). [ ]: non-standard residue; d: D form. The star is where a group is joined. ξ: configuration not given here. Phe(4-COOH) = N[C@@H](Cc1ccc(C(=O)O)cc1)C(=O)O; Bip = N[C@@H](Cc1ccc(-c2ccccc2)cc1)C(=O)O; Phe(3-OMe) = COc1cccc(C[C@H](N)C(=O)O)c1; Phe(3-F) = N[C@@H](Cc1cccc(F)c1)C(=O)O; Phe(3-Me) = Cc1cccc(C[C@H](N)C(=O)O)c1; Phe(2-F) = N[C@@H](Cc1ccccc1F)C(=O)O; Val(3-OH) = CC(C)(O)[C@H](N)C(=O)O; Hyp = O=C(O)[C@@H]1C[C@@H](O)CN1; 4Pal = N[C@@H](Cc1ccncc1)C(=O)O; 3Thi = N[C@@H](Cc1ccsc1)C(=O)O; Cha = N[C@@H](CC1CCCCC1)C(=O)O; Cit = NC(=O)NCCC[C@H](N)C(=O)O; Ile(3ξ) = CCC(C)[C@H](N)C(=O)O; dCha = N[C@H](CC1CCCCC1)C(=O)O; Thr(3ξ) = CC(O)[C@H](N)C(=O)O; Carboxymethyl = O=C(O)C*; Nle = CCCC[C@H](N)C(=O)O; Orn = NCCC[C@H](N)C(=O)O; Dab = NCC[C@H](N)C(=O)O; Dap = NC[C@H](N)C(=O)O
Target: T1, human PD-1 / PD-L1-Ig binding on Jurkat cell line over-expressing human PD-1 (Jurkat-PD-1) (Homo sapiens, UniProt Q15116)
T1 construct: expressed in transfected cells; host or cells: Jurkat
T1 sequence (Q15116 25-288): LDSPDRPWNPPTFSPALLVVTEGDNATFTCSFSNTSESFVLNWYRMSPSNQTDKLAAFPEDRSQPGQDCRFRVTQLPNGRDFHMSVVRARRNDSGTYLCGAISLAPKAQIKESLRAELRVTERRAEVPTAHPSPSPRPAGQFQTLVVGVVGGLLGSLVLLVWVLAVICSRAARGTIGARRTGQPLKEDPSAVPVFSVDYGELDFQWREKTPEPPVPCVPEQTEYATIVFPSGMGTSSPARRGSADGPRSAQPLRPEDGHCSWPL
Experiment: Jurkat-PD-1 Cell Binding High-Content Screening Assay (CBA)
Type: cell-based
Settings: Jurkat-PD-1 cells, PE-labeled PD-L1-Ig 20 nM final; read-out: Jurkat HPD1_PDL1 IC50
In short: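 Read-out: high-content imaging of PE-tagged PD-L1-Ig bound to Jurkat cells overexpressing human PD-1, after fixation with 4% paraformaldehyde and Hoechst 33342 nuclear staining. Ligand was used at 20 nM final for 1 hour, after a 2 h compound exposure at 37° C in serum-containing DMEM.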

| IC50 [nM] | SMILES |
| --- | --- |
| 25.1 | CC(C)C[C@H]1NC(=O)[C@H](CCCN)NC(=O)[C@H](CCC(=O)O)NC(=O)[C@H](Cc2ccc(-c3ccccc3)cc2)NC(=O)[C@H](C(C)C)NC(=O)[C@H](Cc2ccccc2F)NC(=O)[C@H](CC(=O)O)NC(=O)[C@H](Cc2ccncc2)NC(=O)[C@H](Cc2ccc(OCC(=O)O)cc2)NC(=O)CSC[C@@H](C(=O)N[C@@H](C)C(N)=O)NC(=O)[C@H]([C@@H](C)O)NC(=O)[C@H](C(C)C)NC(=O)[C@H](CC2CCCCC2)NC(=O)[C@H](CCN)NC1=O [Compound 2210] ({CH2CO}-Y(Carboxymethyl)[4Pal]D[Phe(2-F)]V[Bip]E[Orn][dL][Dab][Cha]VTCA-NH2; thioether N-14) |
| 20.3 | CC(C)C[C@H]1NC(=O)[C@H](CN)NC(=O)[C@H](C(C)C)NC(=O)[C@H](Cc2ccc(-c3ccccc3)cc2)NC(=O)[C@H](C(C)C)NC(=O)[C@H](Cc2c[nH]c3ccccc23)NC(=O)[C@H](CC(=O)O)NC(=O)[C@H](Cc2ccc(OCC(=O)O)cc2)NC(=O)[C@H](CN)NC(=O)CSC[C@@H](C(=O)NCC(N)=O)NC(=O)[C@H](CO)NC(=O)[C@H](C(C)C)NC(=O)[C@H](CC2CCCCC2)NC(=O)[C@H](CC(N)=O)NC1=O [Compound 1652] ({CH2CO}-[Dap]Y(Carboxymethyl)DWV[Bip]V[Dap][dL]N[Cha]VSCG-NH2; thioether N-14) |
| 7.7 | CCCC[C@@H]1NC(=O)[C@H](CCN)NC(=O)[C@@H](CC(C)C)NC(=O)[C@H](CCCN)NC(=O)[C@H](C(C)C)NC(=O)[C@H](Cc2ccc(-c3ccccc3)cc2)NC(=O)[C@H](C(C)C)NC(=O)[C@H](Cc2cccc(C)c2)NC(=O)[C@H](CC(=O)O)NC(=O)[C@H](Cc2ccc(C(=O)O)cc2)NC(=O)[C@H](Cc2ccncc2)NC(=O)CSC[C@@H](C(=O)N[C@@H](C)C(N)=O)NC(=O)[C@H]([C@@H](C)O)NC(=O)[C@H](C(C)C)NC1=O [Compound 1193] ({CH2CO}-[4Pal][Phe(4-COOH)]D[Phe(3-Me)]V[Bip]V[Orn][dL][Dab][Nle]VTCA-NH2; thioether N-14) |
| 14.9 | CC(C)C[C@H]1NC(=O)[C@H](CCCN)NC(=O)[C@H](CCCNC(N)=O)NC(=O)[C@H](Cc2ccc(-c3ccccc3)cc2)NC(=O)[C@H](CC2CCCCC2)NC(=O)[C@H](Cc2c[nH]c3ccccc23)NC(=O)[C@H](CC(=O)O)NC(=O)[C@H](Cc2ccc(OCC(=O)O)cc2)NC(=O)[C@H](CN)NC(=O)CSC[C@@H](C(=O)N[C@@H](C)C(N)=O)NC(=O)[C@H]([C@@H](C)O)NC(=O)[C@H](C(C)C)NC(=O)[C@H](CC2CCCCC2)NC(=O)[C@H](CCN)NC1=O [Compound 1361] ({CH2CO}-[Dap]Y(Carboxymethyl)DW[Cha][Bip][Cit][Orn][dL][Dab][Cha]VTCA-NH2; thioether N-14) |
| 22.9 | CC[C@H](C)[C@@H]1NC(=O)[C@H](Cc2ccc(-c3ccccc3)cc2)NC(=O)[C@H](C(C)C)NC(=O)[C@H](Cc2c[nH]c3ccccc23)NC(=O)[C@H](CC(=O)O)NC(=O)[C@H](Cc2ccc(OCC(=O)O)cc2)NC(=O)[C@H](Cc2ccc(OCC(=O)O)cc2)NC(=O)CSC[C@@H](C(=O)N[C@@H](C)C(N)=O)NC(=O)[C@H]([C@@H](C)O)NC(=O)[C@H](C(C)C)NC(=O)[C@H](Cc2cccc(F)c2)NC(=O)[C@H](CCN)NC(=O)[C@@H](CC(C)C)NC(=O)[C@H](CCCN)NC1=O [Compound 1671] ({CH2CO}-Y(Carboxymethyl)Y(Carboxymethyl)DWV[Bip]I[Orn][dL][Dab][Phe(3-F)]VTCA-NH2; thioether N-14) |
| 52 | CCCC[C@@H]1NC(=O)[C@H](CC(N)=O)NC(=O)[C@@H](CC(C)C)NC(=O)[C@H](CCCN)NC(=O)[C@H](C(C)C)NC(=O)[C@H](Cc2ccc(-c3ccccc3)cc2)NC(=O)[C@H](CC(C)C)NC(=O)[C@H](Cc2c[nH]c3ccccc23)NC(=O)[C@H](CC(=O)O)NC(=O)[C@H](Cc2ccc(O)cc2)NC(=O)[C@H](Cc2ccccc2)NC(=O)CSC[C@@H](C(=O)NCC(N)=O)NC(=O)[C@H](CO)NC(=O)[C@H](C(C)C)NC1=O [Compound 1339] ({CH2CO}-FYDWL[Bip]V[Orn][dL]N[Nle]VSCG-NH2; thioether N-14) |
| 13.3 | CC[C@H](C)[C@@H]1NC(=O)[C@H](Cc2ccc(-c3ccccc3)cc2)NC(=O)[C@H](C(C)C)NC(=O)[C@H](Cc2c[nH]c3ccccc23)NC(=O)[C@H](CC(=O)O)NC(=O)[C@H](Cc2ccc(O)cc2)NC(=O)[C@H](CC(N)=O)NC(=O)CSC[C@@H](C(=O)N[C@@H](C)C(N)=O)NC(=O)[C@H](CO)NC(=O)[C@H](C(C)C)NC(=O)[C@H](CC(C)C)NC(=O)[C@H](CCN)NC(=O)[C@@H](CC(C)C)NC(=O)[C@H](CCCCN)NC1=O [Compound 1119] ({CH2CO}-NYDWV[Bip]IK[dL][Dab]LVSCA-NH2; thioether N-14) |
| 356 | Cc1cccc(C[C@@H]2NC(=O)[C@H](CC(=O)O)NC(=O)[C@H](Cc3ccc(OCC(=O)O)cc3)NC(=O)[C@@H]3C[C@@H](O)CN3C(=O)CSC[C@@H](C(=O)N[C@@H](CCN)C(N)=O)NC(=O)[C@H](CO)NC(=O)[C@H](C(C)(C)O)NC(=O)[C@H](CC3CCCCC3)NC(=O)[C@H](CCN)NC(=O)[C@@H](CC(C)C)NC(=O)[C@H](CCCN)NC(=O)[C@H](Cc3ccc(OCC(=O)O)cc3)NC(=O)[C@H](Cc3ccc(-c4ccccc4)cc3)NC(=O)[C@H](Cc3ccc(OCC(=O)O)cc3)NC2=O)c1 [Compound 2059] ({CH2CO}-[Hyp]Y(Carboxymethyl)D[Phe(3-Me)]Y(Carboxymethyl)[Bip]Y(Carboxymethyl)[Orn][dL][Dab][Cha][Val(3-OH)]SC[Dab]-NH2; thioether N-14) |
| 11.8 | CC(C)[C@@H]1NC(=O)[C@H](Cc2c[nH]c3ccccc23)NC(=O)[C@H](CC(=O)O)NC(=O)[C@H](Cc2ccc(OCC(=O)O)cc2)NC(=O)[C@H](CN)NC(=O)CSC[C@@H](C(=O)N[C@@H](C)C(N)=O)NC(=O)[C@H]([C@@H](C)O)NC(=O)[C@H](C(C)C)NC(=O)[C@H](CC2CCCCC2)NC(=O)[C@H](CCN)NC(=O)[C@@H](CC2CCCCC2)NC(=O)[C@H](CCCN)NC(=O)[C@H](CCC(=O)O)NC(=O)[C@H](Cc2ccc(-c3ccccc3)cc2)NC1=O [Compound 1443] ({CH2CO}-[Dap]Y(Carboxymethyl)DWV[Bip]E[Orn][dCha][Dab][Cha]VTCA-NH2; thioether N-14) |
| 12.4 | CCC(C)[C@@H]1NC(=O)[C@H](Cc2ccc(-c3ccccc3)cc2)NC(=O)[C@H](CC(C)C)NC(=O)[C@H](Cc2c[nH]c3ccccc23)NC(=O)[C@H](CC(=O)O)NC(=O)[C@H](Cc2ccc(OCC(=O)O)cc2)NC(=O)[C@H](Cc2ccc(OCC(=O)O)cc2)NC(=O)CSC[C@@H](C(=O)N[C@@H](CC(N)=O)C(=O)O)NC(=O)[C@H](CO)NC(=O)[C@H](C(C)C)NC(=O)[C@H](CC(C)C)NC(=O)[C@H](CCN)NC(=O)[C@@H](CC(C)C)NC(=O)[C@H](CCCN)NC1=O (stereo partly drawn) [Compound 2576] ({CH2CO}-Y(Carboxymethyl)Y(Carboxymethyl)DWL[Bip][Ile(3ξ)][Orn][dL][Dab]LVSCN-OH; thioether N-14) |
| 4.9 | CC(C)C[C@H]1NC(=O)[C@H](CCCN)NC(=O)[C@H](C(C)C)NC(=O)[C@H](Cc2ccc(-c3ccccc3)cc2)NC(=O)[C@H](C(C)C)NC(=O)[C@H](Cc2c[nH]c3ccccc23)NC(=O)[C@H](CC(=O)O)NC(=O)[C@H](Cc2ccc(OCC(=O)O)cc2)NC(=O)[C@H](C(C)O)NC(=O)CSC[C@@H](C(=O)N[C@@H](CC(N)=O)C(N)=O)NC(=O)[C@H](CO)NC(=O)[C@H](C(C)C)NC(=O)[C@H](CC2CCCCC2)NC(=O)[C@H](CCN)NC1=O (stereo partly drawn) [Compound 2550] ({CH2CO}-[Thr(3ξ)]Y(Carboxymethyl)DWV[Bip]V[Orn][dL][Dab][Cha]VSCN-NH2; thioether N-14) |
| 3.1 | Cc1cccc(C[C@@H]2NC(=O)[C@H](CC(=O)O)NC(=O)[C@H](Cc3ccc(C(=O)O)cc3)NC(=O)[C@H](Cc3ccsc3)NC(=O)CSC[C@@H](C(=O)N[C@@H](CCN)C(N)=O)NC(=O)[C@H](CO)NC(=O)[C@H](C(C)(C)O)NC(=O)[C@H](CC3CCCCC3)NC(=O)[C@H](CCN)NC(=O)[C@@H](CC(C)C)NC(=O)[C@H](CCCN)NC(=O)[C@H](Cc3ccc(OCC(=O)O)cc3)NC(=O)[C@H](Cc3ccc(-c4ccccc4)cc3)NC(=O)[C@H](Cc3ccc(OCC(=O)O)cc3)NC2=O)c1 [Compound 2617] ({CH2CO}-[3Thi][Phe(4-COOH)]D[Phe(3-Me)]Y(Carboxymethyl)[Bip]Y(Carboxymethyl)[Orn][dL][Dab][Cha][Val(3-OH)]SC[Dab]-NH2; thioether N-14) |
| 24.3 | COc1cccc(C[C@@H]2NC(=O)[C@H](CN)NC(=O)CSC[C@@H](C(=O)N[C@@H](C)C(N)=O)NC(=O)[C@H]([C@@H](C)O)NC(=O)[C@H](C(C)C)NC(=O)[C@H](CC3CCCCC3)NC(=O)[C@H](CCN)NC(=O)[C@@H](CC(C)C)NC(=O)[C@H](CCCN)NC(=O)[C@H](CCCNC(N)=O)NC(=O)[C@H](Cc3ccc(-c4ccccc4)cc3)NC(=O)[C@H](C(C)C)NC(=O)[C@H](Cc3c[nH]c4ccccc34)NC(=O)[C@H](CC(=O)O)NC2=O)c1 [Compound 2091] ({CH2CO}-[Dap][Phe(3-OMe)]DWV[Bip][Cit][Orn][dL][Dab][Cha]VTCA-NH2; thioether N-14) |
| 9.3 | Cc1cccc(C[C@@H]2NC(=O)[C@H](CC(=O)O)NC(=O)[C@H](Cc3ccc(C(=O)O)cc3)NC(=O)[C@H](Cc3ccncc3)NC(=O)CSC[C@@H](C(=O)N[C@@H](C)C(N)=O)NC(=O)[C@H]([C@@H](C)O)NC(=O)[C@H](C(C)C)NC(=O)[C@H](CC3CCCCC3)NC(=O)[C@H](CCN)NC(=O)[C@@H](CC(C)C)NC(=O)[C@H](CCCN)NC(=O)[C@H](c3ccccc3)NC(=O)[C@H](Cc3ccc(-c4ccccc4)cc3)NC(=O)[C@H](C(C)C)NC2=O)c1 [Compound 1616] |

From US20250163104A1, “MACROCYCLIC IMMUNOMODULATORS” (priority 2021, published 2025)
